Tests used:
[1] = Test for ulcerogenic action (i), single dose, fasted rats; format: in vivo; settings: rat, in vivo, po
Description: (§1) (4) Test for ulcerogenic action
(§2) After 18 hours, the rats were killed by suffocation with chloroform and their stomachs were excised. After having been filled with 5 ml of 1% formalin to fix the gastric mucosa, each stomach was incised along the greater curvature to inspect grossly the extent of injury of the gastric mucosa. The extent of injury was scored as follows: 0, no lesion; 1, petechia or erosion; 2, 1-5 small ulcers; 3, many small ulcers; 4, many large ulcers or perforation. The intestinal injury was evaluated based on the incidence of erosion.

[2] = system: gastric mucosa and intestine; experiment: as above; format: in vivo; settings: for Gastric glandular score: 18 hours, score 0 (no lesion) to 4 (many large ulcers or perforation)
Description: as §1, §2

[3] = system: Carrageenin-induced edema; experiment: Carrageenin-induced edema; format: in vivo, rat (Donryu strain, male); settings: Rattus norvegicus, po, mean in 5 hours, read-out: Inhibitory percent of swelling
Description: (iii) Carrageenin-induced edema
Each of the 6 Donryu strain male rats per group (each weighing about 140 g), which had been fasted overnight, was orally loaded with 4 ml of water and, after 30 minutes, the test compound was orally administered thereto. Thirty minutes thereafter, a 1%(Wt/V) solution of carrageenin in physiological saline was subcutaneously injected into the subplantar region of the left hind paw. At a time interval of one hour, starting from the end of the first hour till the end of the fifth hour after injection of carrageenin, the paw volume was measured by means of a manometer and pressure transducer. By comparison with the percent increase in swelling of the control group of rats to which a 0.5%(V/V) solution of Tween 80 had been administered, the mean inhibitory percent in 5 hours of swelling was calculated by the following equation: [formula]

[4] = system: Vascular permeability; experiment: Vascular permeability in mice (Whittle's method); format: in vivo, mouse (ddY strain, male); settings: for Inhibition: dye leakage
Description: (i) Vascular permeability in mice (Whittle's method)
The test compound was orally administered to each ddY strain male mouse (weighing each about 20 g). After 20 minutes, 0.1 ml/10 g of a 4%(Wt/V) solution of Pontamine Sky Blue in physiological saline was intravenously injected and 10 minutes thereafter 0.1 ml/10 g of a 0.7%(V/V) solution of acetic acid in physiological saline was injected intraperitoneally. After 30 minutes, the mice were killed by suffocation with chloroform. After immediate laparotomy, the dye leaked into the peritoneal cavity was washed out with distilled water. The washings were made up with water to 30 ml and the absorbance at 620 mμ was measured. The amount of leaked dye per 20 g of mouse weight was compared.

[5] = system: gastric mucosa and intestine; experiment: Test for ulcerogenic action (ii), three doses, rats on normal meal; format: in vivo, rat (Donryu strain, male); set-up: scale not given here
Description: (ii) In the same manner as in (i), the test compound was orally administered to each Donryu strain male rat (weighing about 180 g; 10 rats per group) which had received normal meal. The second dose was administered after 8 hours and the third dose after 16 hours from the second dose. Five hours after the last administration, the rats were treated in the same manner as in (i). The gastric mucosa injury and the intestinal injury were scored in the same manner as in (i).

[6] = system: Vascular permeability; experiment: Vascular permeability in rat (Whittle's method); format: in vivo, rat (Wistar strain, male)
Description: (ii) Vascular permeability in rat (Whittle's method)
The test compound was orally administered to each Wistar strain male rat (weighing about 150 g) which had been fasted overnight. After 55 minutes, 0.5 ml of a 0.5% Evans Blue solution was intravenously injected. Five minutes thereafter, 0.2 ml/100 g of a 3%(V/V) acetic acid solution was intraperitoneally injected. After 60 minutes from the injection of the acetic acid solution, the rats were killed by suffocation with chloroform. After immediate laparotomy, the dye leaked into the peritoneal cavity was washed out with physiological saline. The washings were made up with the saline to 30 ml and the absorbance at 640 mμ was measured to examine the effect of the test compounds by comparing the amounts of leaked dye per rat with one another.

[7] = system: phenylbenzoquinone writhing; experiment: Analgesic activity, phenylbenzoquinone method in mouse; format: in vivo, mouse (ddY strain, male); settings: for Frequency of writhing, mean ± S.E.: during 10 minutes
Description: (i) Phenylbenzoquinone method in mouse
The test compound was orally administered to each ddY strain male mouse (weighing 22±2 g; 8 mice per group). […] The frequency of writhing during 10 minutes from 5-minutes after the injection of phenylbenzoquinone was measured and compared with that of a control group to which a 0.5% Tween 80 solution was administered. The percent inhibition was calculated by the following equation: [formula]

[8] = system: Adjuvant arthritis; experiment: Adjuvant arthritis; format: in vivo, rat (Sprague-Dawley strain, male); settings: 1 mg/kg p.o./day, mean during one week
Description: A suspension containing 6 mg/ml of killed and dried Mycobacterium butyricum in liquid paraffin was subcutaneously injected into the subplantar region of the left hind paw of Sprague-Dawley strain male rats (weighing 180 to 200 g) in a proportion of 0.1 ml/rat. After 14 days, the rats having inflammatory paws of similar volumes were selected and the test compound was orally administered to the rats repeatedly at the rate shown in Table 4 during one week and the mean inhibitory percent of swelling during one week was determined.

[9] = in vivo; settings: rat, po
[10] = system: pain threshold (brewer's yeast, hind paw); experiment: Analgesic activity, Randall-Selitto method in rat; format: in vivo, rat (Wistar strain, male); settings: for Inhibition: 100% = pain threshold raised by 150 g
Description: (ii) Randall-Selitto method in rat
After one hour, the test compound was orally administered. One hour thereafter, the pain threshold value was measured four times at a time interval of one hour. The mean value of four values obtained was taken as the pain threshold value of each group of rats. The activity of the drug was assumed to be 100% when the pain threshold value was raised by 150 g.

CC(C(=O)O)c1ccc(-c2cccs2)cc1 (centres unmarked) [Compound C2]
TD50 at 18 h [1]: 25 mg/kg | Intestine erosion incidence ([2]; 10 mg/kg p.o.): 1/7 | Gastric glandular score ([2]; 10 mg/kg p.o.): 1.11 ± 0.21 | Intestine erosion incidence ([2]; 30 mg/kg p.o.): 1/7 | Gastric glandular score ([2]; 30 mg/kg p.o.): 1.89 ± 0.24 | Intestine erosion incidence ([2]; 100 mg/kg p.o.): 6/7 | Gastric glandular score ([2]; 100 mg/kg p.o.): 3.61 ± 0.26 | Death incidence ([2]; rat, in vivo): 3/7 | inhibition in vivo at 1 mg/kg ([3]; 1 mg/kg p.o.): 11.8% | inhibition in vivo at 5 mg/kg ([3]; 5 mg/kg p.o.): 32.9% | Dye leakage (P.S.B.) mean ± S.E. ([4]; 5 mg/kg p.o.): 314.7 ± 31.3 μg/20g | Dye leakage (P.S.B.) mean ± S.E. ([4]; 10 mg/kg p.o.): 264.8 ± 21.8 μg/20g | Inhibition ([4]; 5 mg/kg p.o.): 1.9% | Inhibition ([4]; 10 mg/kg p.o.): 17.5% | ED30 ([4]; po, mouse, read-out: ED30): 19.8 mg/kg | Score, intestine, mean ± S.E. ([5]; 5 mg/kg × 3 p.o.): 1.07 ± 0.30 | Score, stomach, mean ± S.E. ([5]; 5 mg/kg × 3 p.o.): 1.21 ± 0.18 | Score, intestine, mean ± S.E. ([5]; 15 mg/kg × 3 p.o.): 1.17 ± 0.21 | Score, stomach, mean ± S.E. ([5]; 15 mg/kg × 3 p.o.): 2.33 ± 0.31 | Inhibition ([6]; 1 mg/kg p.o.): 16.4% | Inhibition ([6]; 5 mg/kg p.o.): 47.3% | ED30 ([6]; po, rat, read-out: ED30): 2.1 mg/kg | Frequency of writhing, mean ± S.E. ([7]; 10 mg/kg p.o.): 22.3 ± 1.9 | Frequency of writhing, mean ± S.E. ([7]; 20 mg/kg p.o.): 14.6 ± 3.1 | Frequency of writhing, mean ± S.E. ([7]; 40 mg/kg p.o.): 11.1 ± 2.4 | inhibition in vivo at 10 mg/kg ([7]; Mus musculus, po, 10 min, writhing, 10 mg/kg p.o., read-out: Inhibition): 5.5% | inhibition in vivo at 20 mg/kg ([7]; Mus musculus, po, 10 min, writhing, 20 mg/kg p.o., read-out: Inhibition): 38.1% | inhibition in vivo at 40 mg/kg ([7]; Mus musculus, po, 10 min, writhing, 40 mg/kg p.o.): 53% | ED50 ([7]; po, mouse, read-out: ED50): 33 mg/kg | Inhibitory percent of swelling [8]: 7.2% | LD50 [9]: 115 mg/kg | Inhibition ([10]; 1 mg/kg p.o.): 33.8% | Inhibition ([10]; 5 mg/kg p.o.): 35.2% | Inhibition ([10]; 25 mg/kg p.o.): 58.5% | ED50 ([10]; po, rat, read-out: ED50): 14.5 mg/kg
